Columns and labels:
[1] = Body weight, food intake and water intake during alcohol-induced hepatotoxicity study (Example III); assay type: in vivo, Swiss Albino mice; conditions: for change in body weight / change in food intake / change in water intake: 10 mg/kg p.o. + alcohol, 15 days; for body weight / food intake / water intake: 10 mg/kg p.o. + alcohol 5 g/kg p.o. twice daily, mean ± SD
Protocol: Swiss Albino male and female mice weighing approximately 30±5 g, 2 month old mice were obtained from National Research Institute of Ayurveda for Drug Development (Govt. of India), Kolkata, and were housed in polypropylene cages at 22±3° C., relative air humidity of 45 to 55%, with 12.00 hr light & dark cycle (lighting on from 6:00 AM to 6:00 PM). Mice were provided a standard pellet chow diet (carbohydrate 65.5%, protein 17.6%, fat 6.6%) and distilled water ad libitum. The mice were acclimatized for one week in the laboratory conditions, before being used in the experiment. All experiments were conducted between 10.00 hr and 14.00 hr. Principles of laboratory animals care (NIH publication no. 85-23, revised 1985) were followed.
Vehicle control animals (“Con Veh”) were administered 0.3% CMC orally for 15 days.
Animals receiving ethanol (“Alc+0.3 CMC”, “3-OH-DBP+Alc”, “3,8-(OH)2-DBP+Alc”) were administered ethanol in 0.3% CMC orally as discussed above.
Results were expressed in terms of mean±SD (n=8). The data were subjected to one way ANOVA followed by Tukey's test using GraphPad Prism 4.0 software to establish statistical significance (*p<0.05, **p<0.01, ***p<0.001 vs. vehicle control; # p<0.05, ## p<0.01, ### p<0.001 vs. animals administered ethanol only).

[2] = tested on: paracetamol-induced hepatotoxicity in mice; test: Synergistic hepatoprotective activity of DBPs against paracetamol-induced hepatotoxicity (Example IV); assay type: in vivo; conditions: for ACP / ALP / ALT / AST / Total Protein: paracetamol 200 mg/kg, mean ± SEM, n=4
[3] = tested on: alcohol-induced hepatotoxicity in mice; test: Synergistic hepatoprotective activity of DBPs against alcohol-induced hepatotoxicity (Example IV); conditions: for ACP / ALP / ALT / AST / Total Protein: alcohol 5 g/kg, mean ± SEM, n=4
Protocol: Hepatotoxicity was induced by oral administration of alcohol (ethanol: 5 g/kg) from stock 400 mg/ml twice daily for 15 days.
3-OH-DBP and 3,8-(OH)2-DBP were each separately suspended in 0.3% CMC and administered at a dose of 10 mg/kg body weight per orally for 15 days. During the 15 days treatment, body weight, food intake, and water intake were monitored at regular intervals. Following 15 days of treatment physical parameters (relative organ weight) and biochemical parameters (plasma total protein content, ALT, AST, ALP, and ACP) were studied.
3-OH-DBP (2 mg/kg body weight, 10 mg/kg body weight);
3,8-(OH)2-DBP (10 mg/kg body weight, 50 mg/kg body weight); and

[4] = female mice, doses 3-OH-DBP 2, 3,8-(OH)2-DBP 10, 1:5 combination 12 mg/kg b.w.
[5] = female mice, doses 3-OH-DBP 10, 3,8-(OH)2-DBP 50, 1:5 combination 60 mg/kg b.w.
[6] = male mice, doses 3-OH-DBP 2, 3,8-(OH)2-DBP 10, 1:5 combination 12 mg/kg b.w.
[7] = male mice, doses 3-OH-DBP 10, 3,8-(OH)2-DBP 50, 1:5 combination 60 mg/kg b.w.
[8] = female mice, doses 3-OH-DBP 2, 3,8-(OH)2-DBP 10, combination 12 mg/kg b.w.

For `O=c1oc2cc(O)ccc2c2ccc(O)cc12` [3,8-(OH)2-DBP, 3,8-dihydroxy-dibenzo-alpha-pyrone], the “change in body weight” value ([1]; female mice) was “No significant change”, the “change in food intake” value ([1]; female mice) was “No significant change” and the “change in water intake” value ([1]; female mice) was “No significant change”. It also gave a body weight ([1]; female mice, Day 0) of 25.17 ± 2.32 gm, a food intake ([1]; female mice, Day 0) of 8.52 ± 0.30 gm and a water intake ([1]; female mice, Day 0) of 4 ± 0.28 mL. For the same compound, the body weight ([1]; female mice, Day 5) was 23.5 ± 3.02 gm, the food intake ([1]; female mice, Day 5) was 8.78 ± 1.02 gm and the water intake ([1]; female mice, Day 5) was 4.01 ± 0.26 mL. It also gave a body weight ([1]; female mice, Day 10) of 23.67 ± 3.07 gm, a food intake ([1]; female mice, Day 10) of 16.44 ± 0.47 gm and a water intake ([1]; female mice, Day 10) of 2.32 ± 0.46 mL. It also gave a body weight ([1]; female mice, Day 15) of 22.83 ± 2.78 gm, a food intake ([1]; female mice, Day 15) of 16.12 ± 0.66 gm and a water intake ([1]; female mice, Day 15) of 2.15 ± 0.44 mL. The “change in body weight” value ([1]; male mice) was “No significant change”, the “change in food intake” value ([1]; male mice) was “No significant change” and the “change in water intake” value ([1]; male mice) was “No significant change”. The body weight ([1]; male mice, Day 0) was 29.17 ± 2.79 gm, the food intake ([1]; male mice, Day 0) was 17.01 ± 0.75 gm and the water intake ([1]; male mice, Day 0) was 4.92 ± 0.45 mL. The body weight ([1]; male mice, Day 5) was 25 ± 3.29 gm, the food intake ([1]; male mice, Day 5) was 17.18 ± 0.85 gm and the water intake ([1]; male mice, Day 5) was 5.07 ± 0.61 mL. The body weight ([1]; male mice, Day 10) was 25.67 ± 2.66 gm, the food intake ([1]; male mice, Day 10) was 17.21 ± 1.11 gm and the water intake ([1]; male mice, Day 10) was 2.32 ± 0.31 mL. For the same compound, the body weight ([1]; male mice, Day 15) was 24.8 ± 2.93 gm, the food intake ([1]; male mice, Day 15) was 17.23 ± 1.16 gm and the water intake ([1]; male mice, Day 15) was 2.27 ± 0.33 mL. The “ACP, difference in values from paracetamol treated mice” value [2, 4] was “B = (a-c = 4) U/L”, the “ALP, difference in values from paracetamol treated mice” value [2, 4] was “D = (a-c = 53) IU/L” and the “ALT, difference in values from paracetamol treated mice” value [2, 4] was “B = (a-c = 39) IU/L”. For the same compound, the “AST, difference in values from paracetamol treated mice” value [2, 4] was “B = (a-c = 64) IU/L”, the “ACP, difference in values from paracetamol treated mice” value [2, 5] was “E = (a-f = 5) U/L” and the “ALP, difference in values from paracetamol treated mice” value [2, 5] was “E = (a-f = 48) IU/L”. The “ALT, difference in values from paracetamol treated mice” value [2, 5] was “E = (a-f = 43) IU/L”, the “AST, difference in values from paracetamol treated mice” value [2, 5] was “E = (a-f = 77) IU/L” and the ACP [2, 4] was 12 ± 0.63^##(c) U/L. The ALP [2, 4] was 45 ± 7.9^##(c) IU/L, the ALT [2, 4] was 47 ± 12 (c) IU/L and the AST [2, 4] was 79 ± 11*,^#(c) IU/L. The “Total Protein” value [2, 4] was 6.7 ± 0.02 g/dL, the ACP [2, 5] was 11 ± 0.41^#(f) U/L and the ALP [2, 5] was 50 ± 11^#(f)^ IU/L. The ALT [2, 5] was 43 ± 2.5^##(f) IU/L, the AST [2, 5] was 66 ± 11*,^#(f) IU/L and the “Total Protein” value [2, 5] was 5.8 ± 0.30 g/dL. The Relative liver weight ([2]; male and female mice, paracetamol study of Example IV) was “significantly (p<0.01) increased”, the “ACP, difference in values from paracetamol treated mice” value [2, 6] was “B = (a-c = 6.13) U/L” and the “ALP, difference in values from paracetamol treated mice” value [2, 6] was “B = (a-c = 50.87) IU/L”. For the same compound, the “ALT, difference in values from paracetamol treated mice” value [2, 6] was “B = (a-c = 18.35) IU/L”, the “AST, difference in values from paracetamol treated mice” value [2, 6] was “B = (a-c = 33.82) IU/L” and the “ACP, difference in values from paracetamol treated mice” value [2, 7] was “E = (a-f = 10.56) U/L”. The “ALP, difference in values from paracetamol treated mice” value [2, 7] was “E = (a-f = 48.85) IU/L”, the “ALT, difference in values from paracetamol treated mice” value [2, 7] was “E = (a-f = 20.56) IU/L” and the “AST, difference in values from paracetamol treated mice” value [2, 7] was “E = (a-f = 46.36) IU/L”. For the same compound, the ACP [2, 6] was 12.06 ± 0.43 (c) U/L, the ALP [2, 6] was 77.63 ± 6.81 (c) IU/L and the ALT [2, 6] was 49.28 ± 7.23 (c) IU/L. For the same compound, the AST [2, 6] was 68.23 ± 4.96^###(c) IU/L, the “Total Protein” value [2, 6] was 6.97 ± 0.12 g/dL and the ACP [2, 7] was 7.63 ± 0.45^##(f) ^ U/L. For the same compound, the ALP [2, 7] was 79.67 ± 10.18^###(f) IU/L, the ALT [2, 7] was 47.07 ± 6.69^#(f) ^ IU/L and the AST [2, 7] was 55.69 ± 5.37^###(f) IU/L. For the same compound, the “Total Protein” value [2, 7] was 6.98 ± 0.12 g/dL, the “hepatoprotective activity (conclusion, Tables 15 and 16)” value ([2]; paracetamol-induced hepatotoxicity, male and female mice) was “hepatoprotective activity in a dose dependent manner” and the “hepatoprotective activity (conclusion, Tables 17 and 18)” value ([3]; alcohol-induced hepatotoxicity, male and female mice) was “hepatoprotective activity in a dose dependent manner”. For the same compound, the ACP [3, 8] was 15.6 ± 0.99 U/L, the ALP [3, 8] was 84 ± 6.5 (c) IU/L and the ALT [3, 8] was 45.80 ± 5.76 (c)^ IU/L. The AST [3, 8] was 64.09 ± 7.34 (c)^ IU/L, the “Total Protein” value [3, 8] was 6.53 ± 0.10 g/dL and the Relative liver weight ([3]; female mice, alcohol study of Example IV) was “significantly decreased”. For the same compound, the “ACP, difference in values from alcohol treated mice” value [3, 8] was “(c) B = (a-c = 5.67) U/L”, the “ALP, difference in values from alcohol treated mice” value [3, 8] was “B = (a-c = 55.35) IU/L” and the “ALT, difference in values from alcohol treated mice” value [3, 8] was “B = (a-c = 43.04) IU/L”. The “AST, difference in values from alcohol treated mice” value [3, 8] was “B = (a-c = 4.9) IU/L”, the ACP [3, 6] was 11.2 ± 1.44 (c) U/L and the ALP [3, 6] was 88.1 ± 15.8 (c) IU/L. For the same compound, the ALT [3, 6] was 53.9 ± 3.99 (c) IU/L, the AST [3, 6] was 25.6 ± 3.10 (c) IU/L and the “Total Protein” value [3, 6] was 7.65 ± 0.34 g/dL. For the same compound, the ACP [3, 7] was 9.19 ± 0.71 (f)^ U/L, the ALP [3, 7] was 78 ± 7.21 (f) IU/L and the ALT [3, 7] was 64.3 ± 2(f) ^ IU/L. The AST [3, 7] was 24.8 ± 2.19 (f) IU/L, the “Total Protein” value [3, 7] was 8.60 ± 0.35 g/dL and the “ACP, difference in values from alcohol treated mice” value [3, 6] was “B = (a-c = 7.4) U/L”. For the same compound, the “ALP, difference in values from alcohol treated mice” value [3, 6] was “B = (a-c = 45.9) IU/L”, the “ALT, difference in values from alcohol treated mice” value [3, 6] was “B = (a-c = 52.1) IU/L” and the “AST, difference in values from alcohol treated mice” value [3, 6] was “B = (a-c = 35.1) IU/L”. The “ACP, difference in values from alcohol treated mice” value [3, 7] was “E = (a-f = 9.41) U/L”, the “ALP, difference in values from alcohol treated mice” value [3, 7] was “E = (a-f = 56) IU/L” and the “ALT, difference in values from alcohol treated mice” value [3, 7] was “E = (a-f = 41.7) IU/L”. For the same compound, the “AST, difference in values from alcohol treated mice” value [3, 7] was “E = (a-f = 35.9) IU/L”.

Source: patent US20220071952A1, “METHODS OF TREATING AND PREVENTING HEPATOTOXICITY” (Natreon, Inc., priority 2020, published 2022)
